SMILES strings stand for the structures. Bounds are passed on as bounds.

The target of one experiment is T1, IL-17A/A (Homo sapiens, UniProt Q16552).
T1 construct: purchased Genscript Z03228
T1 sequence (Q16552 24-155): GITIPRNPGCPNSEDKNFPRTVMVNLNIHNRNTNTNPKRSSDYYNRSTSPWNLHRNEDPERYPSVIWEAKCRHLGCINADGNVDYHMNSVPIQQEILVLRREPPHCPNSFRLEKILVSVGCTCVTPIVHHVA
The experiment in a line: IL-17A/A HEK-Blue cell assay (SEAP reporter). The format is cell-based. The following applies: HEK-Blue IL-17A reporter cells, IL17A/A 5 ng/mL, 20 hours, SEAP read at A630; read-out: HEK-Blue IL17AA (IC50 for IL-17A/A inhibition).

A further experiment addresses T2, IL-17A/F (Homo sapiens, UniProt Q16552+Q96PD4).
T2 construct: purchased R&D Systems
T2 sequence (Q16552 24-155): T1 sequence (Q16552 24-155)
T2 sequence (Q96PD4 31-163): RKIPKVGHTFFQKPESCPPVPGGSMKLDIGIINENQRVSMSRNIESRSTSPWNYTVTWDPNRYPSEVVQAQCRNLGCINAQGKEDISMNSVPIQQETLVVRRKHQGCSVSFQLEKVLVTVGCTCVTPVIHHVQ
The experiment in a line: IL-17A/F HEK-Blue cell assay (SEAP reporter). It is filed as cell-based. The following applies: HEK-Blue IL-17A reporter cells, IL17A/F 5 ng/mL, 20 hours, SEAP read at A630; read-out: HEK-Blue IL17AF (IC50 for IL-17A/F inhibition).

With `Cc1nonc1C(=O)N[C@H](c1cn2nc(C[C@H]3C[C@@H](C(F)(F)F)CNC3=O)c(N3CCN(C)CC3)nc2n1)C1CCC(F)(F)CC1` [Compound 311, N—((S)-(4,4-difluorocyclohexyl)(3-(4-methylpiperazin-1-yl)-2-(((3R,5R)-2-oxo-5-(trifluoromethyl)piperidin-3-yl)methyl)imidazo[1,2-b][1,2,4]triazin-6-yl)methyl)-4-methyl-1,2,5-oxadiazole-3-carboxamide], the IC50 on IL-17A/A is < 0.1 µM; on IL-17A/F, > 1 µM.
In the same order, the values of `CCc1nonc1C(=O)N[C@H](c1cn2nc(C[C@H]3C[C@@H](C(F)(F)F)CNC3=O)c(N3CCN(C)CC3)nc2n1)C1CCC(F)(F)CC1` [Compound 312, N—((S)-(4,4-difluorocyclohexyl)(3-(4-methylpiperazin-1-yl)-2-(((3R,5R)-2-oxo-5-(trifluoromethyl)piperidin-3-yl)methyl)imidazo[1,2-b][1,2,4]triazin-6-yl)methyl)-4-ethyl-1,2,5-oxadiazole-3-carboxamide] are < 0.1 µM and > 1 µM.
Turning to `Cc1nonc1C(=O)N[C@H](c1cn2nc(C[C@H]3C[C@@H](C(F)(F)F)CNC3=O)c(C3CCOCC3)nc2n1)C1CCCCC1` [Compound 313, N—((S)-cyclohexyl(2-(((3R,5R)-2-oxo-5-(trifluoromethyl)piperidin-3-yl)methyl)-3-(tetrahydro-2H-pyran-4-yl)imidazo[1,2-b][1,2,4]triazin-6-yl)methyl)-4-methyl-1,2,5-oxadiazole-3-carboxamide], the IC50 is < 0.1 µM on IL-17A/A and > 1 µM at IL-17A/F.
`Cc1nonc1C(=O)N[C@H](c1cn2nc(C[C@H]3C[C@@H](C(F)(F)F)CNC3=O)c(C3CCOCC3)nc2n1)C1CC2(C1)CC(F)(F)C2` [Compound 314, N—((S)-(6,6-difluorospiro[3.3]heptan-2-yl)(2-(((3R,5R)-2-oxo-5-(trifluoromethyl)piperidin-3-yl)methyl)-3-(tetrahydro-2H-pyran-4-yl)imidazo[1,2-b][1,2,4]triazin-6-yl)methyl)-4-methyl-1,2,5-oxadiazole-3-carboxamide]: the figures for the IC50 on IL-17A/A and at IL-17A/F were < 0.1 µM and > 1 µM, respectively.
In the same order, the values of `CCc1nonc1C(=O)N[C@H](c1cn2nc(C[C@H]3C[C@@H](C(F)(F)F)CNC3=O)c(C3CCOCC3)nc2n1)C1CC2(C1)CC(F)(F)C2` [Compound 315, N—((S)-(6,6-difluorospiro[3.3]heptan-2-yl)(2-(((3R,5R)-2-oxo-5-(trifluoromethyl)piperidin-3-yl)methyl)-3-(tetrahydro-2H-pyran-4-yl)imidazo[1,2-b][1,2,4]triazin-6-yl)methyl)-4-ethyl-1,2,5-oxadiazole-3-carboxamide] are < 0.1 µM and > 1 µM.
In the same order, the values of `Cc1nonc1C(=O)N[C@H](c1cn2nc(C[C@H]3C[C@@H](C(F)(F)F)CNC3=O)c(C3CCOCC3)nc2n1)[C@H]1C[C@H]2C[C@H]2C1` [Compound 316, N—((S)-((1R,3r,5S)-bicyclo[3.1.0]hexan-3-yl)(2-(((3R,5R)-2-oxo-5-(trifluoromethyl)piperidin-3-yl)methyl)-3-(tetrahydro-2H-pyran-4-yl)imidazo[1,2-b][1,2,4]triazin-6-yl)methyl)-4-methyl-1,2,5-oxadiazole-3-carboxamide] are 0.1 to 1 µM and > 1 µM.
In the same order, the values of `CCc1nonc1C(=O)N[C@H](c1cn2nc(C[C@H]3C[C@@H](C(F)(F)F)CNC3=O)c(C3CCOCC3)nc2n1)[C@H]1C[C@H]2C[C@H]2C1` [Compound 317, N—((S)-((1R,3r,5S)-bicyclo[3.1.0]hexan-3-yl)(2-(((3R,5R)-2-oxo-5-(trifluoromethyl)piperidin-3-yl)methyl)-3-(tetrahydro-2H-pyran-4-yl)imidazo[1,2-b][1,2,4]triazin-6-yl)methyl)-4-ethyl-1,2,5-oxadiazole-3-carboxamide] are 0.1 to 1 µM and > 1 µM.
With `Cc1nonc1C(=O)N[C@H](c1cn2nc(C[C@H]3C[C@@H](C(F)(F)F)CNC3=O)c(C3CCOCC3)nc2n1)[C@H]1C[C@H](C2CC2)C1` [Compound 318, N—((S)-((1r,3S)-3-cyclopropylcyclobutyl)(2-(((3R,5R)-2-oxo-5-(trifluoromethyl)piperidin-3-yl)methyl)-3-(tetrahydro-2H-pyran-4-yl)imidazo[1,2-b][1,2,4]triazin-6-yl)methyl)-4-methyl-1,2,5-oxadiazole-3-carboxamide], the IC50 on IL-17A/A was < 0.1 µM; at IL-17A/F, > 1 µM.
As for `CCc1nonc1C(=O)N[C@H](c1cn2nc(C[C@H]3C[C@@H](C(F)(F)F)CNC3=O)c(C3CCOCC3)nc2n1)[C@H]1C[C@H](C2CC2)C1` [Compound 319, N—((S)-((1r,3S)-3-cyclopropylcyclobutyl)(2-(((3R,5R)-2-oxo-5-(trifluoromethyl)piperidin-3-yl)methyl)-3-(tetrahydro-2H-pyran-4-yl)imidazo[1,2-b][1,2,4]triazin-6-yl)methyl)-4-ethyl-1,2,5-oxadiazole-3-carboxamide], the IC50 on IL-17A/A was < 0.1 µM; at IL-17A/F it was > 1 µM.
On the same counts, the results for `Cn1nccc1C(=O)N[C@H](c1cn2nc(C[C@H]3C[C@@H](C(F)(F)F)CNC3=O)c(C3CCOCC3)nc2n1)C(C1CC1)C1CC1` [Compound 320, N—((S)-2,2-dicyclopropyl-1-(2-(((3R,5R)-2-oxo-5-(trifluoromethyl)piperidin-3-yl)methyl)-3-(tetrahydro-2H-pyran-4-yl)imidazo[1,2-b][1,2,4]triazin-6-yl)ethyl)-1-methyl-1H-pyrazole-5-carboxamide] are < 0.1 µM and 0.1 to 1 µM.
On the same counts, the results for `CCn1nccc1C(=O)N[C@H](c1cn2nc(C[C@H]3CC(F)(F)CNC3=O)c(C3CCOCC3)nc2n1)C(C1CC1)C1CC1` [Compound 323] are < 0.1 µM and > 1 µM.
On the same counts, the results for `CCn1nccc1C(=O)N[C@H](c1cn2nc(C[C@H]3C[C@@H](C(F)(F)F)CNC3=O)c(N3CCOCC3)nc2n1)C1CCCCC1` [Compound 326, N—((S)-cyclohexyl(3-morpholino-2-(((3R,5R)-2-oxo-5-(trifluoromethyl)piperidin-3-yl)methyl)imidazo[1,2-b][1,2,4]triazin-6-yl)methyl)-1-ethyl-1H-pyrazole-5-carboxamide] are < 0.1 µM and 0.1 to 1 µM.
In the case of `CCc1nonc1C(=O)N[C@H](c1cn2nc(C[C@H]3C[C@@H](C(F)(F)F)CNC3=O)c(N3CCOCC3)nc2n1)C1CCCCC1` [Compound 327, N—((S)-cyclohexyl(3-morpholino-2-(((3R,5R)-2-oxo-5-(trifluoromethyl)piperidin-3-yl)methyl)imidazo[1,2-b][1,2,4]triazin-6-yl)methyl)-4-ethyl-1,2,5-oxadiazole-3-carboxamide], the IC50 on IL-17A/A was < 0.1 µM; on IL-17A/F, > 1 µM.
On the same counts, the results for `CCn1nccc1C(=O)N[C@H](c1cn2nc(C[C@@H]3CC(F)(F)CNC3=O)c(C3CCOCC3)nc2n1)C(C1CC1)C1CC1` [Compound 328] are < 0.1 µM and 0.1 to 1 µM.
In the same order, the values of `CCn1nccc1C(=O)N[C@H](c1cn2nc(C[C@H]3C[C@@H](C(F)(F)F)CNC3=O)c(CNCC(F)(F)F)nc2n1)C1CCC(F)(F)CC1` [Compound 331, N—((S)-(4,4-difluorocyclohexyl)(2-(((3R,5R)-2-oxo-5-(trifluoromethyl)piperidin-3-yl)methyl)-3-(((2,2,2-trifluoroethyl)amino)methyl)imidazo[1,2-b][1,2,4]triazin-6-yl)methyl)-1-ethyl-1H-pyrazole-5-carboxamide] are < 0.1 µM and 0.1 to 1 µM.
On the same counts, the results for `CCn1nccc1C(=O)N[C@H](c1cn2nc(C[C@H]3C[C@@H](C(F)(F)F)CNC3=O)c(CN3CC(F)(F)C3)nc2n1)C1CCC(F)(F)CC1` [Compound 332, N—((S)-(3-((3,3-difluoroazetidin-1-yl)methyl)-2-(((3R,5R)-2-oxo-5-(trifluoromethyl)piperidin-3-yl)methyl)imidazo[1,2-b][1,2,4]triazin-6-yl)(4,4-difluorocyclohexyl)methyl)-1-ethyl-1H-pyrazole-5-carboxamide] are < 0.1 µM and > 1 µM.
Regarding `CCn1nccc1C(=O)N[C@H](c1cn2nc(C[C@H]3C[C@@H](C(F)(F)F)CNC3=O)c(CN3CCC(F)(F)C3)nc2n1)C1CCC(F)(F)CC1` [Compound 333, N—((S)-(4,4-difluorocyclohexyl)(3-((3,3-difluoropyrrolidin-1-yl)methyl)-2-(((3R,5R)-2-oxo-5-(trifluoromethyl)piperidin-3-yl)methyl)imidazo[1,2-b][1,2,4]triazin-6-yl)methyl)-1-ethyl-1H-pyrazole-5-carboxamide], the IC50 was < 0.1 µM on IL-17A/A and > 1 µM on IL-17A/F.
`CCn1nccc1C(=O)N[C@H](c1cn2nc(C[C@H]3C[C@@H](C(F)(F)F)CNC3=O)c(Cn3ccnc3)nc2n1)C1CCC(F)(F)CC1` [Compound 334, N—((S)-(3-((1H-imidazol-1-yl)methyl)-2-(((3R,5R)-2-oxo-5-(trifluoromethyl)piperidin-3-yl)methyl)imidazo[1,2-b][1,2,4]triazin-6-yl)(4,4-difluorocyclohexyl)methyl)-1-ethyl-1H-pyrazole-5-carboxamide]: the IC50 at IL-17A/A is < 0.1 µM; at IL-17A/F it was 0.1 to 1 µM.

These data come from patent US20260226068A1, “IMIDAZOTRIAZINE IL-17A MODULATORS AND USES THEREOF” (DICE ALPHA, INC., priority 2023, published 2026).
